Source: ChEMBL document CHEMBL5257092, “Synthesis and biological evaluation of biaryl alkyl ethers as inhibitors of IDO1” (Bioorg Med Chem Lett, 2023)

Key:
[1] = target: Indoleamine 2,3-dioxygenase 1 (Homo sapiens, UniProt P14902); assay: Inhibition of IDO1 (unknown origin) expressed in human HeLa cells; assay type: cell-based
[2] = target: Tryptophan 2,3-dioxygenase (Homo sapiens, UniProt P48775); assay: Inhibition of TDO (unknown origin) expressed in HEK cells; assay type: cell-based
[3] = Metabolic stability in human liver microsomes assessed as compound remaining at 0.5 uM incubated for 10 mins relative to control; assay type: ADME, Microsome; settings: for remaining at 10 min, 0.5 µM: liver microsomes, read-out: Stability
[4] = Metabolic stability in rat liver microsomes assessed as compound remaining at 0.5 uM incubated for 10 mins relative to control; assay type: ADME, Microsome; settings: for remaining at 10 min, 0.5 µM: liver microsomes, read-out: Stability; for Stability: microsomes, 10 min, 0.5 µM
[5] = Metabolic stability in mouse liver microsomes assessed as compound remaining at 0.5 uM incubated for 10 mins relative to control; assay type: ADME, Microsome; settings: for remaining at 10 min, 0.5 µM: liver microsomes, read-out: Stability
[6] = target: T1, Cytochrome P450 2C9 (Homo sapiens, UniProt P11712); assay: Inhibition of CYP2C9 (unknown origin); assay type: ADME
[7] = target: T2, Cytochrome P450 1A2 (Homo sapiens, UniProt P05177); assay: Inhibition of human CYP1A2; assay type: ADME
T2 sequence (P05177 whole entry): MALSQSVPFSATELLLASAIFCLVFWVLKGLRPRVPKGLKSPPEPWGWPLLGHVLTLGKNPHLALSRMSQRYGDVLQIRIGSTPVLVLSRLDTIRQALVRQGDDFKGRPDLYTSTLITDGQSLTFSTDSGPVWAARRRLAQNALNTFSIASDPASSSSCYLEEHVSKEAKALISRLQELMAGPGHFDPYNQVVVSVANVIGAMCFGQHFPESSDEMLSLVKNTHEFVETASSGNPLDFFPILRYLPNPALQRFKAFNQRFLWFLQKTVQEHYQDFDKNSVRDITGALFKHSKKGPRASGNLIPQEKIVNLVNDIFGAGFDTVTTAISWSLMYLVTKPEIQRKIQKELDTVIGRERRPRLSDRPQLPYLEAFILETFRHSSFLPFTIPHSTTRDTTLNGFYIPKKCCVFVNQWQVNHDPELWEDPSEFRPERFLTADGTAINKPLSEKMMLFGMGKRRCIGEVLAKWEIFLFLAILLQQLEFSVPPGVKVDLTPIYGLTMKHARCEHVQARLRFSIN

[8] = target: T3, Cytochrome P450 2C19 (Homo sapiens, UniProt P33261); assay: Inhibition of human CYP2C19; assay type: ADME
[9] = target: T1, Cytochrome P450 2C9; assay: Inhibition of human CYP2C9; assay type: ADME
[10] = target: Cytochrome P450 2D6 (Homo sapiens, UniProt P10635); assay: Inhibition of human CYP2D6; assay type: ADME
[11] = target: Cytochrome P450 3A4 (Homo sapiens, UniProt P08684); assay: Inhibition of human CYP3A4; assay type: ADME
[12] = target: T4, Cytochrome P450 2C8 (Homo sapiens, UniProt P10632); assay: Inhibition of human CYP2C8; assay type: ADME
T4 sequence (P10632 whole entry): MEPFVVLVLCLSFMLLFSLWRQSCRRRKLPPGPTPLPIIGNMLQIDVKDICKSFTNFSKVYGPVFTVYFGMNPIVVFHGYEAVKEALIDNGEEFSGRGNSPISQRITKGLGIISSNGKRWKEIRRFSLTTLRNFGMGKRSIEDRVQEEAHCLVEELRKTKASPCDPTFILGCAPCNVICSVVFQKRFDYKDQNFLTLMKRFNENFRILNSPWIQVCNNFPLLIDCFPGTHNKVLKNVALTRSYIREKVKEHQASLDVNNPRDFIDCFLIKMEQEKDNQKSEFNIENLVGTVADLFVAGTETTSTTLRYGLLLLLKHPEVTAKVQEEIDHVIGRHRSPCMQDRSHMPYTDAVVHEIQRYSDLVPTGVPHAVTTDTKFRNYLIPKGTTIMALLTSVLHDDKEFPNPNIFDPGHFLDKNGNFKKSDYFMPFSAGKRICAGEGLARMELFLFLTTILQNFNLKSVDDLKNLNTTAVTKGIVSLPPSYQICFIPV

[13] = target: T5, Cytochrome P450 2B6 (Homo sapiens, UniProt P20813); assay: Inhibition of human CYP2B6; assay type: ADME
T5 sequence (P20813 whole entry): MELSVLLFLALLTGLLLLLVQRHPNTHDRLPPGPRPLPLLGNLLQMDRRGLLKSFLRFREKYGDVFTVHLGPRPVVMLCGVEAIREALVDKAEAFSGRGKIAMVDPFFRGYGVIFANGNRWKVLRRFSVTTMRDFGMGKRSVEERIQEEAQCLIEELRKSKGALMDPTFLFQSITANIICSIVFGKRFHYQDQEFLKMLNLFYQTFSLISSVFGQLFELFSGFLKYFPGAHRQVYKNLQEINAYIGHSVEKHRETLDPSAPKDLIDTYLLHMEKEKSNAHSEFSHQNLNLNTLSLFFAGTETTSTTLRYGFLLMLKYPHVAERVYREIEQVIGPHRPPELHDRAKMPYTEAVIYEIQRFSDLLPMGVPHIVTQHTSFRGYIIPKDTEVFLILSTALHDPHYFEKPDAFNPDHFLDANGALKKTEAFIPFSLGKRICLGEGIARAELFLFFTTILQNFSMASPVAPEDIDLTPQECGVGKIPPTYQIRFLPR

[14] = Stability in human liver microsomes assessed as half life; assay type: ADME, Microsome
[15] = Stability in rat liver microsomes assessed as half life; assay type: ADME, Microsome
[16] = Stability in mouse liver microsomes assessed as half life; assay type: ADME, Microsome
[17] = Stability in monkey liver microsomes assessed as half life; assay type: ADME, Macaca mulatta, Microsome; settings: rhesus monkey
[18] = Stability in dog liver microsomes assessed as half life; assay type: ADME, Canis lupus familiaris, Microsome
[19] = target: T6, Voltage-gated inwardly rectifying potassium channel KCNH2 (Homo sapiens, UniProt Q12809); assay: Inhibition of hERG; assay type: toxicity
[20] = target: T7, Nuclear receptor subfamily 1 group I member 2 (Homo sapiens, UniProt O75469); assay: Transactivation of PXR (unknown origin); assay type: toxicity
T7 sequence (O75469 whole entry): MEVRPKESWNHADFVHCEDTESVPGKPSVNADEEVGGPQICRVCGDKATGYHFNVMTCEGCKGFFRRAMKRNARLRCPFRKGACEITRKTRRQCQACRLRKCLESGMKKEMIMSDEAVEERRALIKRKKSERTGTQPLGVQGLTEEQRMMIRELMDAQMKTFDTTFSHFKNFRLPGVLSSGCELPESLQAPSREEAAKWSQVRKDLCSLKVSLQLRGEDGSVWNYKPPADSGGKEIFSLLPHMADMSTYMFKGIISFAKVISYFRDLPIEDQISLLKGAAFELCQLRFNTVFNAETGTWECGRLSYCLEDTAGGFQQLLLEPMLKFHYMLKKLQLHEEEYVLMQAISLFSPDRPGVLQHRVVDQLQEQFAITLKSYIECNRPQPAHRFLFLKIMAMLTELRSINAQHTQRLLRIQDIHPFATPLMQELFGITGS

[21] = target: T4, Cytochrome P450 2C8; assay: Inhibition of CYP2C8 (unknown origin); assay type: ADME
[22] = target: T3, Cytochrome P450 2C19; assay: Inhibition of CYP2C19 (unknown origin); assay type: ADME
[23] = target: hERG (Homo sapiens, UniProt Q12809); assay: (§1) Inhibition of hERG at 10 uM relative to control; assay type: toxicity
[24] = target: T6, Voltage-gated inwardly rectifying potassium channel KCNH2; assay: as §1; assay type: toxicity; settings: 10 µM

Sequence of Tryptophan 2,3-dioxygenase (P48775 whole entry): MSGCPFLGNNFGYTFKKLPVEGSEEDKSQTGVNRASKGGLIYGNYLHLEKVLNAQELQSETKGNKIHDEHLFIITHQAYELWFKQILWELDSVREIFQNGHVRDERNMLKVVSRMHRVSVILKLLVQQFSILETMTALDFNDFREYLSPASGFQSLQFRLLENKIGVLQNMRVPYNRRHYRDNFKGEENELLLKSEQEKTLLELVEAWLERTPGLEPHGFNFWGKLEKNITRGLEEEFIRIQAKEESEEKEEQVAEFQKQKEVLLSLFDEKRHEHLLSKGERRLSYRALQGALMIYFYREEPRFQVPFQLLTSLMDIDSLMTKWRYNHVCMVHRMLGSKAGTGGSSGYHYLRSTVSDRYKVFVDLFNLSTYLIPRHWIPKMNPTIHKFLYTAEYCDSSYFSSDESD
T3 sequence (P33261 whole entry): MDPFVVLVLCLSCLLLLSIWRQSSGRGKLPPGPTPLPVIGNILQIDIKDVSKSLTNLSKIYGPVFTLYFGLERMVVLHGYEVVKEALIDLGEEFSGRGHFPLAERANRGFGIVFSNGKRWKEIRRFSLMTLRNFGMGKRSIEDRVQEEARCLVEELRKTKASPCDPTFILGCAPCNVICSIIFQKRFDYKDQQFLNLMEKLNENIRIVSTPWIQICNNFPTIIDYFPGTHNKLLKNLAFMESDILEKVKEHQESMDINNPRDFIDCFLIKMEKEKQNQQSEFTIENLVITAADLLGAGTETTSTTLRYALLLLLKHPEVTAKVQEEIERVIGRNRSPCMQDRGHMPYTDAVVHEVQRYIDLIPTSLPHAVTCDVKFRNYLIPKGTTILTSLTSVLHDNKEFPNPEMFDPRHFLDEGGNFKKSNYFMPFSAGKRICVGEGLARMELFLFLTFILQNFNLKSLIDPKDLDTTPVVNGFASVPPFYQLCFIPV
T1 sequence (P11712 whole entry): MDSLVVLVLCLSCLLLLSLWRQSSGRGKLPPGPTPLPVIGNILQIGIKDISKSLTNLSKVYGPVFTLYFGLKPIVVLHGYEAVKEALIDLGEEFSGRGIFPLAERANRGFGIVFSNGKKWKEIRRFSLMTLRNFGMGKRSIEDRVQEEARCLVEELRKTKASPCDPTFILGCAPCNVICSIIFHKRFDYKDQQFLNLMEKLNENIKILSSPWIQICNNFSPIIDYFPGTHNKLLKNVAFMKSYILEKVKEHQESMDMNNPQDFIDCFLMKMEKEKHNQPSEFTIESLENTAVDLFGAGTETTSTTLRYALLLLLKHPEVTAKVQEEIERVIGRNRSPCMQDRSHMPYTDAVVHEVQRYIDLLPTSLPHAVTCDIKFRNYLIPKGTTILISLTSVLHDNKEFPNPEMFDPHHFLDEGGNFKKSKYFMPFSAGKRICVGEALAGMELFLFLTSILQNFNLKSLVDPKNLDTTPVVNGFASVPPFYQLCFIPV
T6 sequence (Q12809 whole entry): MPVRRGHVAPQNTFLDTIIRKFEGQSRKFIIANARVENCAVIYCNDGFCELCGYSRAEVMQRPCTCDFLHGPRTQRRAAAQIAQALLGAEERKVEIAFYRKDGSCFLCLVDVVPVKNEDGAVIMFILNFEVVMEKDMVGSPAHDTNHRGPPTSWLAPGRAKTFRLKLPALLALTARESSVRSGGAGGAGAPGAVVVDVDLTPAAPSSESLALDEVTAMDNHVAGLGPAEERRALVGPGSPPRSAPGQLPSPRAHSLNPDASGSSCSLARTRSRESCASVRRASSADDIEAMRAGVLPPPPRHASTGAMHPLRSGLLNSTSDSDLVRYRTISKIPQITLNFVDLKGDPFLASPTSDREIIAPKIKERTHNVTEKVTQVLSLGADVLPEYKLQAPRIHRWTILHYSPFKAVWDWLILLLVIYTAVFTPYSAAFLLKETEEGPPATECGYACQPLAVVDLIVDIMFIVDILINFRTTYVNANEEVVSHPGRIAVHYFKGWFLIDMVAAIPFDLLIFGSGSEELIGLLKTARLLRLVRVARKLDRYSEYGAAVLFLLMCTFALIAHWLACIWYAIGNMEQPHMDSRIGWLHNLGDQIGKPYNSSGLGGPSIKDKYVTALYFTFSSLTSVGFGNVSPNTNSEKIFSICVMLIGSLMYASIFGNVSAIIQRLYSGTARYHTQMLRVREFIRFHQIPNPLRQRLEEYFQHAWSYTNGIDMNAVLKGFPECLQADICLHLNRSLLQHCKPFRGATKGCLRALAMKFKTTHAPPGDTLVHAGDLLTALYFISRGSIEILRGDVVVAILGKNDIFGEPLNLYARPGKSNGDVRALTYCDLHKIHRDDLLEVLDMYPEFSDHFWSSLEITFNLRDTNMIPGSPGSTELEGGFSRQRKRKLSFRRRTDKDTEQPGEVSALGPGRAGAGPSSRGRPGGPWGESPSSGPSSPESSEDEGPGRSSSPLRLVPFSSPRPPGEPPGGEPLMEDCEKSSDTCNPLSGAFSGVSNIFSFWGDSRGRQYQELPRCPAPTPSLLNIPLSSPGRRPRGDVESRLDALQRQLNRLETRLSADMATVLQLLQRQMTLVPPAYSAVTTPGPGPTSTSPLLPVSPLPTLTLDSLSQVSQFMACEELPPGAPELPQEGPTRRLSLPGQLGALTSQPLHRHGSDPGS
Sequence of Indoleamine 2,3-dioxygenase 1 (P14902 whole entry): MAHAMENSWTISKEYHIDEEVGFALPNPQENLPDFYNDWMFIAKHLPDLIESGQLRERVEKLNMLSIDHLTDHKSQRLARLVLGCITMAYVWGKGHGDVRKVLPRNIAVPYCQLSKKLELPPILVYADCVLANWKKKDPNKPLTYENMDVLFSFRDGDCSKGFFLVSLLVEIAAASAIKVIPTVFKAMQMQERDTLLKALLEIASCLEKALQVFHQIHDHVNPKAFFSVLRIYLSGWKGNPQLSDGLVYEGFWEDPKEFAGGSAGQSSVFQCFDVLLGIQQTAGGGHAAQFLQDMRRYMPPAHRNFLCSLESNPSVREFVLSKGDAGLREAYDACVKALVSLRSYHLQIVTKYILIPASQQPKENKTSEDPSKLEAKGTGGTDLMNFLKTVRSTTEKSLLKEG
Sequence of hERG (Q12809 whole entry): as the sequence (Q12809 whole entry) above
Sequence of Cytochrome P450 3A4 (P08684 whole entry): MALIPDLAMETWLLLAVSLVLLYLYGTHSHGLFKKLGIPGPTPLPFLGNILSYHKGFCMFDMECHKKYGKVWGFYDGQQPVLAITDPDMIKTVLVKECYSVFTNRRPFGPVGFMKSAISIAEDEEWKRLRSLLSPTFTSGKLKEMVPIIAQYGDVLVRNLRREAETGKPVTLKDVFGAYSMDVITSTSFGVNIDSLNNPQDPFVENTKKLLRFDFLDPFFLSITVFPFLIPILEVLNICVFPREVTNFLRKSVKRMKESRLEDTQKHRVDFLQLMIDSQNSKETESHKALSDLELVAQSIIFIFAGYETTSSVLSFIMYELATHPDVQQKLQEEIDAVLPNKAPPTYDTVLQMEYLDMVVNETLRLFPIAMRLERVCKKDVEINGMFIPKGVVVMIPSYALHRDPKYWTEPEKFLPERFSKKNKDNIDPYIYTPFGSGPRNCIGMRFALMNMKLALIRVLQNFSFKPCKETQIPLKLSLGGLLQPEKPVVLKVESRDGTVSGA

SMILES	IC50 [1] [µM]	IC50 [2] [µM]	remaining at 10 min, 0.5 µM [3] [%]	remaining at 10 min, 0.5 µM [4] [%]	remaining at 10 min, 0.5 µM [5] [%]	IC50 [6] [µM]	IC50 [19] [µM]	also measured
Cc1ccc(NC(=O)Nc2cc(-c3ccccc3-c3nnn[nH]3)ccc2N(CC(C)C)CC(C)C)cc1	0.007	> 7.5	37	60	33	2.7	–	IC50 [7]: 9.5 µM; IC50 [8]: 8.7 µM; IC50 [9]: 2.7 µM; IC50 [10]: 18 µM; IC50 [11]: 7.8 µM; IC50 [12]: 9.2 µM; IC50 [13]: 19 µM; half-life [14]: 9.1 min; half-life [15]: 22 min; half-life [16]: 6.6 min; half-life [17]: 4 min; half-life [18]: 11 min
COc1ccc(-c2ccc(OC(C(C)C)C(C)C)c(NC(=O)Nc3ccc(C)cc3)c2)cc1C(=O)O	1.6	–	–	–	–	–	–	–
CCCC(CCC)Oc1ccc(-c2ccccc2-c2nn[nH]n2)cc1NC(=O)Nc1ccc(C)cc1	0.025	–	62	76	47	1.8	> 80	–
CCCOc1c(CCC)cc(-c2ccccc2-c2nn[nH]n2)cc1NC(=O)Nc1ccc(C)cc1	0.031	–	82	86	68	6.2	40	EC50 [20]: > 9 µM
CC(C)CN(CC(C)C)c1ccc(-c2ccccc2C(=O)O)cc1NC(=O)Nc1ccccc1F	0.013	–	75	72	81	5.1	–	–
C=CC1(C=C)Oc2c(NC(=O)Nc3ccc(C)cc3)cc(-c3ccccc3-c3nn[nH]n3)cc2[C@@H]1c1ccccc1	0.0034	> 7.5	94	86	77	–	> 80	IC50 [21]: 0.27 µM
Cc1ccc(NC(=O)Nc2cc(-c3ccccc3-c3nn[nH]n3)cc3c2O[C@@H](C)C/C=C\[C@H]3c2ccccc2)cc1	0.012	–	94	61	76	–	–	IC50 [21]: 1.9 µM
COc1ccc(-c2ccc(Oc3ccccc3C(C)(C)C)c(NC(=O)Nc3ccccc3F)c2)cc1C(=O)O	–	> 7.5	100	100	61	–	–	IC50 [21]: 5.1 µM
Cc1ccc(NC(=O)Nc2cc(-c3ccccc3-c3nn[nH]n3)ccc2OC(C(C)C)C(C)C)cc1	–	–	41	48	2	1.4	18	–
Cc1ccc(NC(=O)Nc2cc(-c3ccccc3-c3nn[nH]n3)cc3c2O[C@@H](C)CCC[C@H]3c2ccccc2)cc1	0.025	–	100	74	66	–	–	IC50 [21]: 3.2 µM
CCCOc1c(CCC)cc(-c2ccccc2C(=O)O)cc1NC(=O)Nc1ccc(C)cc1	–	–	100	85	82	14	> 80	EC50 [20]: > 20 µM
C=C[C@@H]1Oc2c(NC(=O)Nc3ccc(C)cc3)cc(-c3ccccc3-c3nn[nH]n3)cc2[C@@H]1c1ccccc1 (racemic)	0.0059	–	82	77	57	0.97	–	–
Cc1ccc(NC(=O)Nc2cc(-c3ccccc3-c3nn[nH]n3)cc3c2OCC=CC3c2ccccc2)cc1 (racemic)	0.011	–	69	66	68	2.8	69	–
C=C[C@H]1Oc2c(NC(=O)Nc3ccc(C)cc3)cc(-c3ccccc3-c3nnn[nH]3)cc2[C@@H]1c1ccccc1 (racemic)	0.012	> 7.5	78	88	75	–	–	IC50 [21]: 1 µM
COc1ccc(-c2ccc(O[C@@H]3CCCC[C@H]3C)c(NC(=O)Nc3ccc(C)cc3)c2)cc1C(=O)O (racemic)	> 1	–	–	–	–	–	–	–
Cc1ccc(NC(=O)Nc2cc(-c3ccccc3C(=O)O)ccc2O[C@@H]2CCCC[C@H]2C)cc1 (racemic)	0.24	–	–	–	–	–	–	–
Cc1ccc(NC(=O)Nc2cc(-c3ccccc3-c3nn[nH]n3)cc3c2OC(C)(C)[C@H]3c2ccccc2)cc1 (racemic)	0.0063	–	52	73	42	–	–	IC50 [22]: 0.42 µM
Cc1ccc(NC(=O)Nc2cc(-c3ccccc3-c3nc(=O)[nH]o3)cc3c2OCCCC3c2ccccc2)cc1 (stereo in doubt; 19)	0.0015	> 6	72	–	56	–	–	Stability [4]: 61%; IC50 [22]: 1.2 µM; inhibition at 10 µM [23]: 12%
Cc1ccc(NC(=O)Nc2cc(-c3ccccc3-c3nn[nH]n3)cc3c2OCCCC3c2ccccc2)cc1 (stereo in doubt; 21)	0.0036	> 6	70	92	84	3.7	–	inhibition at 10 µM [23]: 41%; IC50 [7]: > 20 µM; IC50 [8]: 6.7 µM; IC50 [9]: 3.7 µM; IC50 [10]: > 20 µM; IC50 [11]: 8.4 µM; IC50 [12]: 18 µM; IC50 [13]: 17 µM; half-life [14]: 18 min; half-life [15]: 54 min; half-life [16]: 25 min; half-life [17]: 7.4 min; half-life [18]: 22 min
Cc1ccc(NC(=O)Nc2cc(-c3ccccc3-c3nn[nH]n3)cc3c2OCCCC3c2ccccc2)cc1 (stereo in doubt; 22)	0.015	–	–	–	–	6.8	–	IC50 ([2]; hek): > 6 µM; Stability ([3]; microsomes, 10 min, 0.5 µM): 72%; Stability [4]: 96%; Stability ([5]; microsomes, 10 min, 0.5 µM): 100%; inhibition (INH) [24]: 53%
